From US20250304560A1, “MODULATORS OF NLRP3 INFLAMMASOME AND RELATED PRODUCTS AND METHODS” (Neumora Therapeutics, Inc., priority 2022, published 2025)
pIC50: −log10 of the molar value. Like-named read-outs stand apart in the source and are kept apart here.

Assays:
IL-6 = IL-6 AlphaLISA in LPS-primed THP1 macrophages
NLRP3 inflammasome = NLRP3 inflammasome (Homo sapiens, UniProt Q96P20); experiment: NLRP3 inflammasome activation in THP1 macrophages, IL-1β AlphaLISA; details: for IC50: IL-1β Activity (nM), THP1 macrophages, PMA, LPS priming, nigericin 6.7 uM activation
Sequence of NLRP3 inflammasome (Q96P20 whole entry): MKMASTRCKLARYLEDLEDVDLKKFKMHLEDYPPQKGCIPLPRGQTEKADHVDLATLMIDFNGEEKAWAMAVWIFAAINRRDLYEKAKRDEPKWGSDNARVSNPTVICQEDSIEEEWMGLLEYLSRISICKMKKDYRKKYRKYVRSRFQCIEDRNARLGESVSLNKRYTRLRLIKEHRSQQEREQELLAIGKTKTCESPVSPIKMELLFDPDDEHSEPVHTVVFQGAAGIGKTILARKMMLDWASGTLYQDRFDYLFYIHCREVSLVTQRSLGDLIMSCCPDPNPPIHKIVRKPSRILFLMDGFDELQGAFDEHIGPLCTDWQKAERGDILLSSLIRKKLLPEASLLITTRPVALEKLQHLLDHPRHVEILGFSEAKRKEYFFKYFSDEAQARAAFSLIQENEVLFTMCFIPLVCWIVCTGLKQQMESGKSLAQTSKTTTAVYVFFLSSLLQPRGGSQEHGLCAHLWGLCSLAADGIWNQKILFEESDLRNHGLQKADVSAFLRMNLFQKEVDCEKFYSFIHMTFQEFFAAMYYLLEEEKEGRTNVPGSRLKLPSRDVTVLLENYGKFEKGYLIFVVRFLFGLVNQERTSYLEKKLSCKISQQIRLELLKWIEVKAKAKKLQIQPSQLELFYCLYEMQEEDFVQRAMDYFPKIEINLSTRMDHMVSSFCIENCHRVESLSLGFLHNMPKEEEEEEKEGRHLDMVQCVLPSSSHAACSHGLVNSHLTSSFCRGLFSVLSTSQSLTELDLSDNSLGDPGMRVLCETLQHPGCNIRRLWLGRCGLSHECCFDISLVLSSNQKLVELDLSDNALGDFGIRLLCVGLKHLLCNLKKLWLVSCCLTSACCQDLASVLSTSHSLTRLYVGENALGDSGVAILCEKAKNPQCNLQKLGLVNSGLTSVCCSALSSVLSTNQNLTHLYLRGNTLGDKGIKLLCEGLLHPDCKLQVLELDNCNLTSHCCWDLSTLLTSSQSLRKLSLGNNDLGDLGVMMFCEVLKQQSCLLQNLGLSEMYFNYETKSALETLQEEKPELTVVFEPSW

hERG channels = molecular target: T1, hERG channels (Homo sapiens, UniProt Q12809); experiment: hERG assay, whole-cell patch-clamp in CHO-hERG cells; type: cell-based
T1 construct: host or cells: CHO-hERG cells
T1 sequence (Q12809 whole entry): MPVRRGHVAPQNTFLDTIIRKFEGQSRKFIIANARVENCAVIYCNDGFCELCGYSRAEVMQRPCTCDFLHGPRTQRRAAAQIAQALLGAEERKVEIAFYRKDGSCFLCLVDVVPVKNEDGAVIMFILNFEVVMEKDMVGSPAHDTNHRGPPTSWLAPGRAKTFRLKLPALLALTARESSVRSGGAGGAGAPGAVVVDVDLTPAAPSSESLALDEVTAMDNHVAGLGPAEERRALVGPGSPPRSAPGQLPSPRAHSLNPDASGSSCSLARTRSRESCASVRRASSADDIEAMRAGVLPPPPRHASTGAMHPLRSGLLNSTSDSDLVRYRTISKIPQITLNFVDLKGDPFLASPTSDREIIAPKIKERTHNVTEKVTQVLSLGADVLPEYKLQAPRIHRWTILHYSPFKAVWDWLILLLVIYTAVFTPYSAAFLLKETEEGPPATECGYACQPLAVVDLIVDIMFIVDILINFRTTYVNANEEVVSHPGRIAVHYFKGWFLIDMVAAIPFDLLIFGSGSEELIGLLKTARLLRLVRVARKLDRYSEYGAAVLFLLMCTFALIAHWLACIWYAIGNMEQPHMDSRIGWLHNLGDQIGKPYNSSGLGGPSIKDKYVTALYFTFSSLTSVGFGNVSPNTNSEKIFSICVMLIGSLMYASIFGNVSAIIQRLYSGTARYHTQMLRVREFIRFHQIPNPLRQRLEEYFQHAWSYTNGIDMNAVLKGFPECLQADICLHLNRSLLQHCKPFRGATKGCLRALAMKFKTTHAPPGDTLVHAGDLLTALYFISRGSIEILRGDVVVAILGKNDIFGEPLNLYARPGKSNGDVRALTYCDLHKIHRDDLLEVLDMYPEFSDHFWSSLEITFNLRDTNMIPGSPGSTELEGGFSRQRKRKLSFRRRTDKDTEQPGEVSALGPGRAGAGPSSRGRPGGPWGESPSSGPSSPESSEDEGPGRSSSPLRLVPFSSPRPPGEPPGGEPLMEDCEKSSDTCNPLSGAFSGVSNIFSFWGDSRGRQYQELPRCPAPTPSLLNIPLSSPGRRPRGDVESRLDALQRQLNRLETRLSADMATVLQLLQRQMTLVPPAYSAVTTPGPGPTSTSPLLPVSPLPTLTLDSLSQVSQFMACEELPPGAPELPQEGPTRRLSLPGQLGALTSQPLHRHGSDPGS
Method: CHO-hERG cells (Sophion Biosciences (Ballerup, Denmark), subcultured and frozen in WuXi AppTec (Suzhou) Co., Ltd.), stored in liquid nitrogen, were tested and determined to be free from mycoplasma contamination. Cells were not used after the 30th passage. CHO-hERG cells were cultured in a humidified incubator of 5% CO2 (4% to 8%) in air at 37° C. (±2° C.). The cells were recovered with recovery medium (F12 medium with 10% fetal bovine serum), subcultured in complete medium (F12 medium, supplemented with 10% fetal bovine serum, 1% Geneticin® selective antibiotic (G418), 89 μg/mL Hygromycin B (HB)), and the culture medium was switched to recovery medium in the last subculture before patch-clamp experiment.
To determine the compounds' IC50, select compounds (“test articles”) were dissolved into DMSO, and then diluted with ECS to get working solutions. Five concentrations of 0.3, 1, 3, 10, and 30 μM were tested. Two replicate cells for each concentration were tested.
Exponentially growing CHO-hERG cells were collected and suspended in extracellular solution for use. The hERG current was recorded at physiological temperature (33.0° C. to 37.0° C.) using whole-cell patch-clamp techniques. Output signals from the patch-clamp amplifier were digitized and low-pass filtered at 2.9 KHz. The recording was controlled with Patchmaster Pro software. The recording chamber with seeded cells was mounted on an inverted microscope stage. A cell in the recording chamber was randomly selected for testing. The cell was continuously perfused from the perfusion system. A micropipette filled with ICS was used as recording electrode in the manual patch-clamp study. The micropipette was prepared on the day of the patch-clamp experiment using glass capillaries (BF150-117-10, SUTTER INSTRUMENT USA). The pipette resistance (Rp) was within 2 to 5 MΩ with ICS filled. From the holding potential of-80 mV, the voltage was increased to +60 mV for 850 ms to open the hERG channels. After that, the voltage was decreased to-50 mV for 1275 ms, causing a “rebound” or tail current, the peak tail current was measured and collected for data analysis. Finally, the voltage was decreased to the holding potential (−80 mV). This command voltage protocol was repeated every 15 s continuously during the test article application.
During the initial recording period with vehicle control working solution, the peak tail current amplitude was monitored until it had been stable for at least 3 sweeps. Cells were then perfused with test article/positive control working solutions until the peak tail current amplitude reached steady state. Steady state was considered reached when three consecutive super-imposable peak tail currents were collected. At this point, cells were once again perfused with next concentration of test article. One or more test articles/positive control or different concentrations of the same test article were tested on each cell with vehicle control washout until the current amplitude returned to values at least 80% of those measured before application of test article. […] At least 2 replicate cells for each concentration were tested. […] (Milnes, J. T., et al.)
Seal criteria: When acquiring whole-cell configuration, a holding potential (e.g.,-80 mV) was applied while membrane parameters were collected (Cm, Rm and Rs). A “good” whole-cell recording was generally defined as: series resistance (Rs) was less than 10 MΩ; membrane resistance (Rm) was more than 500 MΩ and membrane capacitance (Cm) was less than 100 pF. Current amplitude: The peak current amplitude must be between 400 pA and 5000 pA before the test article/positive control application; otherwise the cell was discarded. Leak criteria: At-80 mV holding potential, the absolute leak current value must be less than 200 pA. The amplitude of current was adjusted with leak current at-80 mV. The sweeps which absolute leak current value was more than 200 pA was not used in data analysis.

[1] = Homo sapiens, THP-1, read-out: IL-6 Activity (μM)
[2] = Homo sapiens, THP-1, read-out: IL-6 Activity (μM), THP1 macrophages, PMA, LPS priming, nigericin 6.7 uM

SMILES | IC50 (IL-6; [1]) [µM] | pIC50 (NLRP3 inflammasome) | IC50 (IL-6; [2]) [µM] | IC50 (NLRP3 inflammasome) [nM] | also measured
CN1CC[C@@H](N(C)c2ccc(-c3ccc(F)cc3O)nn2)C1 [compound 32] | > 10 | < 6.00 | – | – | –
Cc1cc(NC[C@H]2CCCN2C)nnc1-c1ccccc1O [compound 122] | > 10 | < 6.00 | – | – | –
Cc1cc(N[C@@H]2CC[C@@H](C(=O)O)N(C)C2)nnc1-c1ccccc1O [compound 95] | – | – | > 10 | > 1000 | –
Cc1cc(-c2ccc(C#N)cc2O)nnc1O[C@@H]1CCCN(C)C1 [compound 101] | > 10 | < 6.00 | – | – | –
Cc1cc(-c2ccc(C(F)(F)F)cc2O)nnc1O[C@@H]1CCCN(C)C1 [compound 98] | > 10 | 6.30 to 7.00 | – | – | –
Cc1cc(N[C@H]2CN(C)CC[C@H]2F)nnc1-c1ccccc1O [compound 50] | – | – | > 10 | 10 to 100 | –
Cc1cc(N2CCC[C@@H](N(C)C)C2)nnc1-c1ccc(C#N)cc1O [compound 112] | > 10 | < 6.00 | – | – | –
Cc1cc(O[C@@H]2CCCN(C)C2)nnc1-c1ccc(C(F)(F)F)cc1O [compound 73, (R)-2-(4-methyl-6-((1-methylpiperidin-3-yl)oxy)pyridazin-3-yl)-5-(trifluoromethyl) phenol] | > 10 | < 6.00 | – | – | –
Cc1cc(N[C@H]2CN(C)CC[C@@H]2F)nnc1-c1ccc(F)cc1O [compound 48] | – | – | > 10 | 10 to 100 | –
Cc1cc(N2CCC[C@@H](N(C)C)C2)nnc1-c1ccccc1O [compound 111] | > 10 | 6.30 to 7.00 | – | – | –
Cc1cc(N[C@@H]2CCCN(C)C2)nnc1-c1ccc(C(F)(F)F)cc1O [A, reference compound] | – | – | – | – | hERG inhibition (in words) (hERG channels): high; pIC50 (hERG channels; whole-cell patch-clamp, CHO-hERG cells, Table 11 comparison): ≥ 6.00; pIC50 (IL-6; Homo sapiens, THP-1, read-out: IL-6 Activity, LPS-primed THP1 macrophages, Table 11 comparison): < 5.00
Cc1cc(N[C@H]2CN(C)CC(F)(F)C2)nnc1-c1ccc(F)cc1O [compound 45] | – | – | > 10 | 100 to 500 | –
Cc1c(F)ccc(-c2ccc(N(C)[C@@H]3CCCN(C)C3)nn2)c1O [compound 24] | – | – | 1 to 5 | 10 to 100 | –

Now from value to compound, other results behind:

IC50 (IL-6; [1]) [µM] | pIC50 (NLRP3 inflammasome) | IC50 (IL-6; [2]) [µM] | IC50 (NLRP3 inflammasome) [nM] | SMILES | also measured
– | – | > 10 | 1 to 10 | CN1CCC[C@@H](Nc2cc(F)c(-c3ccccc3O)nn2)C1 [compound 52] | –
– | – | 1 to 5 | > 1000 | Cc1cc(-c2ccc(N(C)[C@@H]3CCCN(C)C3)nn2)c(O)cc1F [compound 25] | –
– | – | > 10 | > 1000 | Cc1cc(-c2ccccc2O)nnc1N[C@@H]1CCCN(CCF)C1 [compound 85] | –
– | – | > 10 | 100 to 500 | Cc1ccc(O)c(-c2ccc(N[C@@H]3CCCN(C)C3)nn2)c1 [compound 4] | –
– | – | – | 1 to 10 | Cc1cc(N[C@@H]2CCCN(C)C2)nnc1-c1ccc(F)c(C)c1O [compound 38] | pIC50 (IL-6; read-out: IL-6 Activity, THP1 macrophages, PMA, LPS priming, nigericin 6.7 uM): 5.30 to 6.00
– | – | > 10 | 10 to 100 | CCc1ccc(-c2ccc(N[C@@H]3CCCN(C)C3)nn2)c(O)c1 [compound 14] | –
– | – | 5 to 10 | > 1000 | Cc1ccc(O)c(-c2ccc(N(C)[C@@H]3CCCN(C)C3)nn2)c1 [compound 19] | –
– | – | 5 to 10 | < 1 | Cc1cc(N[C@@H]2CCCN(C(C)C)C2)nnc1-c1ccc(F)cc1O [compound 59] | –
